Assays:
Assay type in all cases: ADME, organism-based
[1] = Plasma concentration in C215 transfected MC38 cells implanted C57BL/6 mouse assessed as N-(5-bromo-3-hydroxypyrazin-2-yl)-1-(3,4-dichlorophenyl)methanesulfonamide level at 5 mg/kg, po dosed as cassette formulation and measured at 0.5 hrs after post dose by LC-MS analysis; conditions: in vivo
[2] = Plasma concentration in C215 transfected MC38 cells implanted C57BL/6 mouse assessed as N-(5-bromo-3-hydroxypyrazin-2-yl)-1-(3,4-dichlorophenyl)methanesulfonamide level at 1 mg/kg, iv dosed as cassette formulation and measured at 4 hrs after post dose by LC-MS analysis; conditions: in vivo
[3] = Plasma concentration in C215 transfected MC38 cells implanted C57BL/6 mouse at 5 mg/kg, po dosed as cassette formulation and measured at 1 hr after post dose by LC-MS analysis
[4] = Plasma concentration in C215 transfected MC38 cells implanted C57BL/6 mouse assessed as N-(5-bromo-3-hydroxypyrazin-2-yl)-1-(3,4-dichlorophenyl)methanesulfonamide level at 1 mg/kg, iv dosed as cassette formulation and measured at 2 hrs after post dose by LC-MS analysis; conditions: in vivo
[5] = Plasma concentration in C215 transfected MC38 cells implanted C57BL/6 mouse at 1 mg/kg, iv dosed as cassette formulation and measured at 2 hrs after post dose by LC-MS analysis
[6] = Plasma concentration in C215 transfected MC38 cells implanted C57BL/6 mouse assessed as N-(5-bromo-3-hydroxypyrazin-2-yl)-1-(3,4-dichlorophenyl)methanesulfonamide level at 1 mg/kg, iv dosed as cassette formulation and measured at 1 hr after post dose by LC-MS analysis; conditions: in vivo
[7] = Plasma concentration in C215 transfected MC38 cells implanted C57BL/6 mouse assessed as N-(5-bromo-3-hydroxypyrazin-2-yl)-1-(3,4-dichlorophenyl)methanesulfonamide level at 1 mg/kg, iv dosed as cassette formulation and measured at 0.083 hrs after post dose by LC-MS analysis; conditions: in vivo
[8] = Plasma concentration in C215 transfected MC38 cells implanted C57BL/6 mouse at 5 mg/kg, po dosed as cassette formulation and measured at 4 hrs after post dose by LC-MS analysis
[9] = Plasma concentration in C215 transfected MC38 cells implanted C57BL/6 mouse at 1 mg/kg, iv dosed as cassette formulation and measured at 0.083 hrs after post dose by LC-MS analysis
[10] = Plasma concentration in C215 transfected MC38 cells implanted C57BL/6 mouse at 1 mg/kg, iv dosed as cassette formulation and measured at 0.5 hrs after post dose by LC-MS analysis
[11] = Plasma concentration in C215 transfected MC38 cells implanted C57BL/6 mouse assessed as N-(5-bromo-3-hydroxypyrazin-2-yl)-1-(3,4-dichlorophenyl)methanesulfonamide level at 1 mg/kg, iv dosed as cassette formulation and measured at 0.5 hrs after post dose by LC-MS analysis; conditions: in vivo
[12] = Plasma concentration in C215 transfected MC38 cells implanted C57BL/6 mouse at 1 mg/kg, iv dosed as cassette formulation and measured at 1 hr after post dose by LC-MS analysis
[13] = Plasma concentration in C215 transfected MC38 cells implanted C57BL/6 mouse at 1 mg/kg, iv dosed as cassette formulation and measured at 7 hrs after post dose by LC-MS analysis
[14] = Plasma concentration in C215 transfected MC38 cells implanted C57BL/6 mouse at 5 mg/kg, po dosed as cassette formulation and measured at 7 hrs after post dose by LC-MS analysis
[15] = Plasma concentration in C215 transfected MC38 cells implanted C57BL/6 mouse at 5 mg/kg, po dosed as cassette formulation and measured at 0.5 hrs after post dose by LC-MS analysis
[16] = Plasma concentration in C215 transfected MC38 cells implanted C57BL/6 mouse assessed as N-(5-bromo-3-hydroxypyrazin-2-yl)-1-(3,4-dichlorophenyl)methanesulfonamide level at 1 mg/kg, iv dosed as cassette formulation and measured at 7 hrs after post dose by LC-MS analysis; conditions: in vivo
[17] = Plasma concentration in C215 transfected MC38 cells implanted C57BL/6 mouse assessed as N-(5-bromo-3-hydroxypyrazin-2-yl)-1-(3,4-dichlorophenyl)methanesulfonamide level at 5 mg/kg, po dosed as cassette formulation and measured at 2 hrs after post dose by LC-MS analysis; conditions: in vivo
[18] = Plasma concentration in C215 transfected MC38 cells implanted C57BL/6 mouse at 1 mg/kg, iv dosed as cassette formulation and measured at 4 hrs after post dose by LC-MS analysis
[19] = Plasma concentration in C215 transfected MC38 cells implanted C57BL/6 mouse assessed as N-(5-bromo-3-hydroxypyrazin-2-yl)-1-(3,4-dichlorophenyl)methanesulfonamide level at 5 mg/kg, po dosed as cassette formulation and measured at 7 hrs after post dose by LC-MS analysis; conditions: in vivo
[20] = Plasma concentration in C215 transfected MC38 cells implanted C57BL/6 mouse assessed as N-(5-bromo-3-hydroxypyrazin-2-yl)-1-(3,4-dichlorophenyl)methanesulfonamide level at 5 mg/kg, po dosed as cassette formulation and measured at 1 hr after post dose by LC-MS analysis; conditions: in vivo
[21] = Plasma concentration in C215 transfected MC38 cells implanted C57BL/6 mouse at 5 mg/kg, po dosed as cassette formulation and measured at 2 hrs after post dose by LC-MS analysis
[22] = Plasma concentration in C215 transfected MC38 cells implanted C57BL/6 mouse assessed as N-(5-bromo-3-hydroxypyrazin-2-yl)-1-(3,4-dichlorophenyl)methanesulfonamide level at 5 mg/kg, po dosed as cassette formulation and measured at 4 hrs after post dose by LC-MS analysis; conditions: in vivo
[23] = Plasma concentration in C215 transfected MC38 cells implanted C57BL/6 mouse assessed as 2,5-dichloro-N-(6-chloro-4-hydroxypyridin-3-yl)thiophene-3-sulfonamide level at 5 mg/kg, po dosed as cassette formulation and measured at 2 hrs after post dose by LC-MS analysis; conditions: in vivo
[24] = Plasma concentration in C215 transfected MC38 cells implanted C57BL/6 mouse assessed as 2,5-dichloro-N-(6-chloro-4-hydroxypyridin-3-yl)thiophene-3-sulfonamide level at 1 mg/kg, iv dosed as cassette formulation and measured at 1 hr after post dose by LC-MS analysis; conditions: in vivo
[25] = Plasma concentration in C215 transfected MC38 cells implanted C57BL/6 mouse assessed as 2,5-dichloro-N-(6-chloro-4-hydroxypyridin-3-yl)thiophene-3-sulfonamide level at 5 mg/kg, po dosed as cassette formulation and measured at 7 hrs after post dose by LC-MS analysis; conditions: in vivo
[26] = Plasma concentration in C215 transfected MC38 cells implanted C57BL/6 mouse assessed as 2,5-dichloro-N-(6-chloro-4-hydroxypyridin-3-yl)thiophene-3-sulfonamide level at 5 mg/kg, po dosed as cassette formulation and measured at 4 hrs after post dose by LC-MS analysis; conditions: in vivo
[27] = Plasma concentration in C215 transfected MC38 cells implanted C57BL/6 mouse assessed as 2,5-dichloro-N-(6-chloro-4-hydroxypyridin-3-yl)thiophene-3-sulfonamide level at 1 mg/kg, iv dosed as cassette formulation and measured at 0.083 hrs after post dose by LC-MS analysis; conditions: in vivo
[28] = Plasma concentration in C215 transfected MC38 cells implanted C57BL/6 mouse assessed as 2,5-dichloro-N-(6-chloro-4-hydroxypyridin-3-yl)thiophene-3-sulfonamide level at 1 mg/kg, iv dosed as cassette formulation and measured at 7 hrs after post dose by LC-MS analysis; conditions: in vivo
[29] = Plasma concentration in C215 transfected MC38 cells implanted C57BL/6 mouse assessed as 2,5-dichloro-N-(6-chloro-4-hydroxypyridin-3-yl)thiophene-3-sulfonamide level at 5 mg/kg, po dosed as cassette formulation and measured at 1 hr after post dose by LC-MS analysis; conditions: in vivo
[30] = Plasma concentration in C215 transfected MC38 cells implanted C57BL/6 mouse assessed as 2,5-dichloro-N-(6-chloro-4-hydroxypyridin-3-yl)thiophene-3-sulfonamide level at 1 mg/kg, iv dosed as cassette formulation and measured at 4 hrs after post dose by LC-MS analysis; conditions: in vivo
[31] = Plasma concentration in C215 transfected MC38 cells implanted C57BL/6 mouse assessed as 2,5-dichloro-N-(6-chloro-4-hydroxypyridin-3-yl)thiophene-3-sulfonamide level at 5 mg/kg, po dosed as cassette formulation and measured at 0.5 hrs after post dose by LC-MS analysis; conditions: in vivo
[32] = Plasma concentration in C215 transfected MC38 cells implanted C57BL/6 mouse assessed as 2,5-dichloro-N-(6-chloro-4-hydroxypyridin-3-yl)thiophene-3-sulfonamide level at 1 mg/kg, iv dosed as cassette formulation and measured at 2 hrs after post dose by LC-MS analysis; conditions: in vivo
[33] = Plasma concentration in C215 transfected MC38 cells implanted C57BL/6 mouse assessed as 2,5-dichloro-N-(6-chloro-4-hydroxypyridin-3-yl)thiophene-3-sulfonamide level at 1 mg/kg, iv dosed as cassette formulation and measured at 0.5 hrs after post dose by LC-MS analysis; conditions: in vivo
[34] = Plasma concentration in C215 transfected MC38 cells implanted C57BL/6 mouse assessed as N-(5-chloro-3-hydroxypyridin-2-yl)-1-(3,5-dichlorophenyl)methanesulfonamide level at 1 mg/kg, iv dosed as cassette formulation and measured at 0.5 hrs after post dose by LC-MS analysis; conditions: in vivo
[35] = Plasma concentration in C215 transfected MC38 cells implanted C57BL/6 mouse assessed as N-(5-chloro-3-hydroxypyridin-2-yl)-1-(3,5-dichlorophenyl)methanesulfonamide level at 1 mg/kg, iv dosed as cassette formulation and measured at 1 hr after post dose by LC-MS analysis; conditions: in vivo
[36] = Plasma concentration in C215 transfected MC38 cells implanted C57BL/6 mouse assessed as N-(5-chloro-3-hydroxypyridin-2-yl)-1-(3,5-dichlorophenyl)methanesulfonamide level at 5 mg/kg, po dosed as cassette formulation and measured at 0.5 hrs after post dose by LC-MS analysis; conditions: in vivo
[37] = Plasma concentration in C215 transfected MC38 cells implanted C57BL/6 mouse assessed as N-(5-chloro-3-hydroxypyridin-2-yl)-1-(3,5-dichlorophenyl)methanesulfonamide level at 5 mg/kg, po dosed as cassette formulation and measured at 2 hrs after post dose by LC-MS analysis; conditions: in vivo
[38] = Plasma concentration in C215 transfected MC38 cells implanted C57BL/6 mouse assessed as N-(5-chloro-3-hydroxypyridin-2-yl)-1-(3,5-dichlorophenyl)methanesulfonamide level at 5 mg/kg, po dosed as cassette formulation and measured at 7 hrs after post dose by LC-MS analysis; conditions: in vivo
[39] = Plasma concentration in C215 transfected MC38 cells implanted C57BL/6 mouse assessed as N-(5-chloro-3-hydroxypyridin-2-yl)-1-(3,5-dichlorophenyl)methanesulfonamide level at 1 mg/kg, iv dosed as cassette formulation and measured at 0.083 hrs after post dose by LC-MS analysis; conditions: in vivo
[40] = Plasma concentration in C215 transfected MC38 cells implanted C57BL/6 mouse assessed as N-(5-chloro-3-hydroxypyridin-2-yl)-1-(3,5-dichlorophenyl)methanesulfonamide level at 5 mg/kg, po dosed as cassette formulation and measured at 4 hrs after post dose by LC-MS analysis; conditions: in vivo
[41] = Plasma concentration in C215 transfected MC38 cells implanted C57BL/6 mouse assessed as N-(5-chloro-3-hydroxypyridin-2-yl)-1-(3,5-dichlorophenyl)methanesulfonamide level at 5 mg/kg, po dosed as cassette formulation and measured at 1 hr after post dose by LC-MS analysis; conditions: in vivo
[42] = Plasma concentration in C215 transfected MC38 cells implanted C57BL/6 mouse assessed as N-(5-chloro-3-hydroxypyridin-2-yl)-1-(3,5-dichlorophenyl)methanesulfonamide level at 1 mg/kg, iv dosed as cassette formulation and measured at 2 hrs after post dose by LC-MS analysis; conditions: in vivo
[43] = Plasma concentration in C215 transfected MC38 cells implanted C57BL/6 mouse assessed as N-(5-chloro-3-hydroxypyridin-2-yl)-1-(3,5-dichlorophenyl)methanesulfonamide level at 1 mg/kg, iv dosed as cassette formulation and measured at 7 hrs after post dose by LC-MS analysis; conditions: in vivo
[44] = Plasma concentration in C215 transfected MC38 cells implanted C57BL/6 mouse assessed as N-(5-chloro-3-hydroxypyridin-2-yl)-1-(3,5-dichlorophenyl)methanesulfonamide level at 1 mg/kg, iv dosed as cassette formulation and measured at 4 hrs after post dose by LC-MS analysis; conditions: in vivo

SMILES	concentration at 1 h [3] [nM]	concentration at 2 h [5] [nM]	concentration at 4 h [8] [nM]	concentration at 0.083 h [9] [nM]	concentration at 0.5 h [10] [nM]	concentration at 1 h [12] [nM]	concentration at 7 h [13] [nM]	concentration at 7 h [14] [nM]	concentration at 0.5 h [15] [nM]	concentration at 4 h [18] [nM]	concentration at 2 h [21] [nM]	further results
COc1nc(Br)cnc1NS(=O)(=O)Cc1ccc(Cl)c(Cl)c1	69400	14900	59400	25200	16800	17500	6200	73500	51700	9200	78900	concentration [1]: 570 nM; concentration [2]: 210 nM; concentration [4]: 320 nM; concentration [6]: 320 nM; concentration [7]: 120 nM; concentration [11]: 320 nM; concentration [16]: 200 nM; concentration [17]: 800 nM; concentration [19]: 1100 nM; concentration [20]: 860 nM; concentration [22]: 630 nM
COc1cc(Cl)ncc1NS(=O)(=O)c1cc(Cl)sc1Cl	91600	17500	47100	32200	19300	23700	2500	50300	86800	7800	109000	concentration [23]: 690 nM; concentration [24]: 190 nM; concentration [25]: 780 nM; concentration [26]: 610 nM; concentration [27]: 89 nM; concentration [28]: 130 nM; concentration [29]: 490 nM; concentration [30]: 180 nM; concentration [31]: 460 nM; concentration [32]: 210 nM; concentration [33]: 200 nM
COc1cc(Cl)cnc1NS(=O)(=O)Cc1cc(Cl)cc(Cl)c1	1600	380	850	6300	550	84	150	700	3600	170	1300	concentration [34]: 5 nM; concentration [35]: 3 nM; concentration [36]: 45 nM; concentration [37]: 21 nM; concentration [38]: 19 nM; concentration [39]: 44 nM; concentration [40]: 12 nM; concentration [41]: 26 nM; concentration [42]: 6 nM; concentration [43]: 4 nM; concentration [44]: 4 nM

— ChEMBL document CHEMBL4418490, “N-(heteroaryl)-sulfonamide derivatives useful as s100-inhibitors” (2018)
